Results from the NIST ThermoML archive (doi:10.1021/je300972a).
Numbers after ± are expanded uncertainties.

Assay: xn = mol fraction of the nth substance listed
Conditions: 101 kPa, Liquid; for viscosity: Falling or rolling sphere viscometry; for mass density: Vibrating tube method

CCCC[n+]1ccc(C)cc1.O=S(=O)([N-]S(=O)(=O)C(F)(F)F)C(F)(F)F + CCCC[n+]1ccccc1.F[B-](F)(F)F
Conditions | mass density, 293.15 K [kg/m3] | mass density, 303.15 K [kg/m3] | mass density, 313.15 K [kg/m3] | viscosity, 293.15 K [mPa·s] | viscosity, 303.15 K [mPa·s] | viscosity, 313.15 K [mPa·s] | viscosity, 323.15 K [mPa·s]
x2 = 0 | 1416.6 ± 1.7 | 1407.3 ± 1.7 | 1398.1 ± 1.7 | 70.6 ± 1.9 | 45.2 ± 1.2 | 30.6 ± 0.8 | 21.8 ± 0.6
x2 = 0.0575 | 1409.3 ± 1.7 | 1400.1 ± 1.7 | 1391 ± 1.7 | 75.3 ± 2.1 | 47.3 ± 1.2 | 31.9 ± 0.8 | 22.6 ± 0.6
x2 = 0.1136 | 1401.9 ± 1.7 | 1392.8 ± 1.7 | 1383.8 ± 1.7 | 77.8 ± 2.2 | 49.3 ± 1.3 | 33 ± 0.8 | 23.5 ± 0.6
x2 = 0.2311 | 1385.1 ± 1.7 | 1376.2 ± 1.7 | 1367.4 ± 1.7 | 88.7 ± 2.7 | 55.5 ± 1.4 | 37 ± 0.9 | 26.4 ± 0.7
x2 = 0.3515 | 1366 ± 1.7 | 1357.4 ± 1.7 | 1348.8 ± 1.7 | 101.1 ± 3.3 | 63.3 ± 1.6 | 42.3 ± 1.1 | 29.6 ± 0.8
x2 = 0.4566 | 1347.8 ± 1.7 | 1339.4 ± 1.7 | 1331.1 ± 1.7 | 115.1 ± 4.1 | 72.7 ± 2 | 47.2 ± 1.2 | 32.4 ± 0.8
x2 = 0.5692 | 1326.2 ± 1.7 | 1318.1 ± 1.7 | 1310 ± 1.7 | 135.2 ± 5.3 | 81.7 ± 2.4 | 52.1 ± 1.3 | 35.4 ± 0.9
x2 = 0.673 | 1304 ± 1.7 | 1296.1 ± 1.7 | 1288.3 ± 1.7 | 153.4 ± 6.5 | 90.6 ± 2.8 | 56.6 ± 1.4 | 38.2 ± 1
x2 = 0.7836 | 1277.5 ± 1.7 | 1270 ± 1.7 | 1262.5 ± 1.7 | 171.9 ± 7.8 | 98.9 ± 3.2 | 61.3 ± 1.6 | 41 ± 1
x2 = 0.889 | 1249.1 ± 1.7 | 1241.9 ± 1.7 | 1234.7 ± 1.7 | 195 ± 9.5 | 109.6 ± 3.8 | 66.9 ± 1.8 | 44.1 ± 1.1
x2 = 0.9535 | 1230.2 ± 1.7 | 1223.2 ± 1.7 | 1216.2 ± 1.7 | 216.1 ± 11 | 118.8 ± 4.3 | 72.5 ± 2 | 46.5 ± 1.2
